# Key:
# Experiment in all cases: ≥ marks a high value that may be exact or a test limit, other limits are often not marked, values filed in µg/mL are converted to µM
# Escherichia coli = tested on: Escherichia coli
# Pseudomonas aeruginosa = tested on: Pseudomonas aeruginosa
# Staphylococcus aureus = tested on: Staphylococcus aureus
# Bacillus subtilis = tested on: Bacillus subtilis
# [1] = tested on: Escherichia coli ATCC 25922
# [2] = tested on: Staphylococcus aureus ATCC 29213
# [3] = tested on: Staphylococcus epidermidis ATCC 12228
MIC (Escherichia coli),MIC (Staphylococcus aureus),MIC [1],MIC [2],SMILES,further results
10 µM,,,,CC[C@H](C)[C@H](N)C(=O)N[C@@H](CC(N)=O)C(=O)N[C@@H](Cc1c[nH]c2ccccc12)C(=O)N[C@@H](CCCCN)C(=O)N[C@@H](CCCCN)C(=O)N[C@H](C(=O)N[C@@H](Cc1ccccc1)C(=O)N[C@@H](CCC(=O)O)C(=O)N[C@@H](CO)C(=O)N[C@H](C(=O)N[C@@H](CCCCN)C(=O)N[C@@H](CC(N)=O)C(=O)N[C@@H](CC(C)C)C(=O)N[C@H](C(N)=O)C(C)C)C(C)C)[C@@H](C)CC [INWKKIFESVKNLV],MIC (Bacillus subtilis): 10 µM
,,10 µM,> 40 µM,CC[C@H](C)[C@H](NC(=O)[C@H](CCCN=C(N)N)NC(=O)[C@H](CCCCN)NC(=O)[C@@H](N)Cc1ccccc1)C(=O)N[C@H](C(=O)N[C@@H](CCC(N)=O)C(=O)N[C@@H](CCCN=C(N)N)C(=O)N[C@@H](C)C(=O)N[C@@H](CCCCN)C(=O)N[C@@H](CC(=O)O)C(=O)N[C@@H](Cc1ccccc1)C(=O)N[C@@H](CC(C)C)C(=O)N[C@@H](CCCN=C(N)N)C(=O)O)C(C)C [FKRIVQRAKDFLR],
,,5 µM,> 40 µM,CC[C@H](C)[C@H](NC(=O)[C@H](CCCN=C(N)N)NC(=O)[C@H](CCCCN)NC(=O)[C@@H](N)Cc1ccccc1)C(=O)NCC(=O)N[C@@H](CCC(N)=O)C(=O)N[C@@H](CCCN=C(N)N)C(=O)N[C@H](C(=O)N[C@@H](CCCCN)C(=O)N[C@@H](CC(=O)O)C(=O)N[C@@H](Cc1ccccc1)C(=O)N[C@@H](CC(C)C)C(=O)N[C@@H](CCCN=C(N)N)C(=O)O)[C@@H](C)CC [FKRIGQRIKDFLR],
> 100 µM,,,,CC[C@H](C)[C@H](N)C(=O)N[C@@H](CC(N)=O)C(=O)N[C@@H](Cc1c[nH]c2ccccc12)C(=O)N[C@@H](CC(C)C)C(=O)N[C@@H](CCCN=C(N)N)C(=O)N[C@@H](CC(C)C)C(=O)NCC(=O)N[C@@H](CCCN=C(N)N)C(=O)N[C@@H](CCCN=C(N)N)C(=O)N[C@H](C(=O)N[C@@H](CC(C)C)C(=O)NCC(=O)N[C@@H](C)C(=O)N[C@@H](CC(C)C)C(N)=O)[C@@H](C)CC [INWLRLGRRILGAL],MIC (Bacillus subtilis): 17.5 µM
,,20 µM,> 40 µM,CC[C@H](C)[C@H](NC(=O)[C@H](CCCN=C(N)N)NC(=O)[C@H](CCC(N)=O)NC(=O)[C@@H](NC(=O)[C@H](CC(N)=O)NC(=O)[C@H](CCCN=C(N)N)NC(=O)[C@H](CCCCN)NC(=O)[C@@H](N)Cc1ccccc1)C(C)C)C(=O)N[C@@H](CCCCN)C(=O)N[C@@H](CC(=O)O)C(=O)N[C@@H](Cc1ccccc1)C(=O)N[C@@H](CC(C)C)C(=O)N[C@@H](CCCN=C(N)N)C(=O)O [FKRNVQRIKDFLR],
21 µM,,,,CC[C@H](C)[C@H](NC(=O)[C@H](CO)NC(=O)[C@H](C)NC(=O)[C@@H](NC(=O)[C@H](CCCCN)NC(=O)[C@H](CCCCN)NC(=O)[C@H](Cc1c[nH]c2ccccc12)NC(=O)[C@@H](N)CC(N)=O)[C@@H](C)CC)C(=O)NCC(=O)N[C@@H](CCCCN)C(=O)N[C@@H](CCC(=O)O)C(=O)N[C@H](C(=O)N[C@@H](CC(C)C)C(=O)N[C@@H](CCCCN)C(=O)N[C@@H](C)C(=O)N[C@@H](CC(C)C)C(N)=O)C(C)C [NWKKIASIGKEVLKAL],MIC (Bacillus subtilis): ≥ 46 µM
100 µM,,,,CC[C@H](C)[C@H](N)C(=O)N[C@@H](CC(N)=O)C(=O)N[C@@H](Cc1c[nH]c2ccccc12)C(=O)N[C@@H](CCCCN)C(=O)N[C@@H](CCCCN)C(=O)N[C@H](C(=O)N[C@@H](C)C(=O)N[C@@H](CO)C(=O)N[C@H](C(=O)NCC(=O)N[C@@H](CCCCN)C(=O)N[C@@H](CCC(=O)O)C(=O)N[C@H](C(=O)N[C@@H](CC(C)C)C(=O)N[C@@H](CCCCN)C(N)=O)C(C)C)[C@@H](C)CC)[C@@H](C)CC [INWKKIASIGKEVLK],MIC (Bacillus subtilis): ≥ 100 µM

# The next lines start with the molecule.
SMILES,MIC (Escherichia coli),MIC (Staphylococcus aureus),MIC [1],MIC [2],further results
CC(C)C[C@H](NC(=O)CNC(=O)[C@H](C)NC(=O)[C@H](CCCCN)NC(=O)[C@H](CC(C)C)NC(=O)[C@H](CCCCN)NC(=O)[C@H](C)NC(=O)[C@H](CC(C)C)NC(=O)CNC(=O)[C@H](C)NC(=O)[C@H](CCCCN)NC(=O)[C@H](Cc1c[nH]c2ccccc12)NC(=O)[C@H](CCCCN)NC(=O)[C@H](C)NC(=O)[C@H](CC(C)C)NC(=O)CNC(=O)[C@H](C)NC(=O)[C@H](CCCCN)NC(=O)[C@H](CC(C)C)NC(=O)[C@@H](N)CCCCN)C(=O)N[C@@H](C)C(N)=O [KLKAGLAKWKAGLAKLKAGLA],15 µM,120 µM,,,MIC (Pseudomonas aeruginosa): > 120 µM
CC[C@H](C)[C@H](NC(=O)[C@H](Cc1ccccc1)NC(=O)[C@@H]1CCCN1C(=O)[C@H](CC(C)C)NC(=O)[C@@H](N)Cc1ccccc1)C(=O)N[C@@H](C)C(=O)N[C@@H](CCCN=C(N)N)C(=O)N[C@@H](CC(C)C)C(=O)N[C@@H](C)C(=O)N[C@@H](C)C(=O)N[C@@H](CCCCN)C(=O)N[C@H](C(=O)N[C@@H](Cc1ccccc1)C(=O)N1CCC[C@H]1C(=O)N[C@@H](CO)C(=O)N[C@H](C(=O)N[C@H](C(=O)N[C@H]1CSSC[C@@H](C(=O)O)NC(=O)[C@H](CCCCN)NC(=O)[C@H](CCCCN)NC(=O)[C@H]([C@@H](C)O)NC(=O)[C@H](C(C)C)NC(=O)[C@H](CO)NC1=O)[C@@H](C)CC)[C@@H](C)CC)C(C)C [FLPFIARLAAKVFPSIICSVTKKC],,55 µM,1.51 µM,0.533 µM,
CC[C@H](C)[C@H](NC(=O)[C@@H](NC(=O)[C@H](C)NC(=O)[C@H](CCCN=C(N)N)NC(=O)[C@H](CC(N)=O)NC(=O)[C@H](Cc1ccccc1)NC(=O)[C@H](CO)NC(=O)[C@@H](NC(=O)[C@H](CCCN=C(N)N)NC(=O)[C@H](CCCN=C(N)N)NC(=O)[C@H](CCCN=C(N)N)NC(=O)[C@H](CC(C)C)NC(=O)[C@H](CCC(=O)O)NC(=O)[C@H](CC(N)=O)NC(=O)[C@H](CCC(=O)O)NC(=O)[C@H](CCC(=O)O)NC(=O)[C@H](CC(N)=O)NC(=O)[C@@H](N)CC(N)=O)C(C)C)C(C)C)C(=O)N[C@@H](Cc1cnc[nH]1)C(=O)N[C@@H](CO)C(=O)N[C@@H](CC(C)C)C(=O)N[C@@H](CC(C)C)C(=O)NCC(N)=O [NNEENELRRRVSFNRAVIHSLLG],,,> 257 µM,> 257 µM,
CC[C@H](C)[C@H](NC(=O)CN)C(=O)N[C@@H](CCCCN)C(=O)N[C@@H](CCCCN)C(=O)N[C@@H](Cc1c[nH]c2ccccc12)C(=O)N[C@@H](CC(C)C)C(=O)N[C@@H](Cc1cnc[nH]1)C(=O)N[C@@H](CCCCN)C(=O)N1CCC[C@H]1C(=O)N[C@@H](CCCCN)C(=O)N[C@@H](CCCCN)C(=O)N[C@@H](Cc1ccccc1)C(=O)N1CCC[C@H]1C(=O)N[C@@H](CCCCN)C(=O)N[C@@H](CCCCN)C(=O)N[C@@H](Cc1ccccc1)C(=O)N[C@H](C(=O)N[C@@H](CCCCN)C(=O)N[C@@H](CCCCN)C(=O)N[C@H](C(=O)N[C@@H](CCSC)C(=O)N[C@@H](CC(N)=O)C(=O)N[C@@H](CO)C(N)=O)[C@@H](C)CC)C(C)C [GIKKWLHKPKKFPKKFVKKIMNS],,,10 µM,,MIC [3]: 1.25 µM
CC(C)C[C@H](NC(=O)[C@H](Cc1ccccc1)NC(=O)[C@@H]1CCCN1C(=O)[C@H](Cc1c[nH]c2ccccc12)NC(=O)[C@H](Cc1c[nH]c2ccccc12)NC(=O)[C@H](Cc1c[nH]c2ccccc12)NC(=O)[C@H](C)NC(=O)[C@H](Cc1ccccc1)NC(=O)[C@H](CCCN=C(N)N)NC(=O)[C@H](CCCN=C(N)N)NC(=O)[C@@H](N)C(C)C)C(=O)N[C@@H](CCCN=C(N)N)C(=O)N[C@@H](CCCN=C(N)N)C(N)=O [VRRFAWWWPFLRR],10.7 µM,2.13 µM,8 µM,,
CC(=O)N[C@@H](CC(C)C)C(=O)N[C@@H](CCCCN)C(=O)N[C@@H](CCCCN)C(=O)N[C@@H](CC(C)C)C(=O)N1CCC[C@H]1C(=O)N[C@@H](CCCCN)C(=O)N[C@@H](CC(C)C)C(=O)N[C@@H](CO)C(=O)N[C@@H](CCCCN)C(=O)N[C@@H](CCCCN)C(=O)N[C@@H](CC(C)C)C(=O)N[C@@H](CC(C)C)C(=O)N[C@@H](CCCCN)C(=O)N[C@@H](CC(C)C)C(N)=O [LKKLPKLSKKLLKL],,,3.54 µM,14.1 µM,
CC[C@H](C)[C@H](NC(=O)[C@H](CCCCN)NC(=O)[C@H](CC(C)C)NC(=O)[C@H](C)NC(=O)[C@H](C)NC(=O)[C@H](CCCCN)NC(=O)[C@H](CC(C)C)NC(=O)[C@H](C)NC(=O)[C@H](CCCCN)NC(=O)CNC(=O)[C@H](CC(C)C)NC(=O)[C@H](Cc1ccccc1)NC(=O)[C@H](CO)NC(=O)CNC(=O)[C@H](Cc1ccccc1)NC(=O)CN)C(=O)NCC(=O)N[C@@H](C)C(=O)N[C@@H](CC(=O)O)C(=O)N[C@H](C(=O)N[C@@H](CC(C)C)C(=O)NCC(=O)NCC(=O)N[C@@H](C)C(=O)N1CCC[C@H]1C(=O)N[C@@H](CCC(N)=O)C(=O)N[C@@H](CCC(N)=O)C(=O)O)C(C)C [GFGSFLGKALKAALKIGADVLGGAPQQ],> 50 µM,25 µM,,,
CC[C@H](C)[C@H](NC(=O)[C@H](Cc1ccccc1)NC(=O)CNC(=O)[C@H](CCCCN)NC(=O)[C@H](C)NC(=O)[C@H](Cc1ccccc1)NC(=O)[C@H](CCCCN)NC(=O)[C@H](CCCCN)NC(=O)[C@@H](NC(=O)[C@H](CO)NC(=O)[C@H](Cc1cnc[nH]1)NC(=O)[C@H](CC(C)C)NC(=O)[C@@H](NC(=O)[C@H](CCC(=O)O)NC(=O)[C@H](CCCCN)NC(=O)[C@H](CC(C)C)NC(=O)CN)C(C)C)[C@@H](C)O)C(=O)N[C@H](C(=O)NCC(=O)N[C@@H](CC(C)C)C(=O)N[C@H](C(=O)NCC(=O)N[C@@H](CCC(N)=O)C(=O)O)[C@@H](C)O)[C@@H](C)O [GLKEVLHSTKKFAKGFITGLTGQ],> 160 µM,> 160 µM,,,
CC[C@H](C)[C@H](NC(=O)[C@H](C)NC(=O)[C@H](CCCCN)NC(=O)[C@H](C)NC(=O)[C@@H](NC(=O)[C@H](CO)NC(=O)[C@H](CCCCN)NC(=O)[C@@H](NC(=O)[C@H](Cc1c[nH]c2ccccc12)NC(=O)[C@H](CCCCN)NC(=O)[C@H](CC(C)C)NC(=O)[C@@H](NC(=O)[C@H](CO)NC(=O)[C@H](CCCCN)NC(=O)[C@H](C)NC(=O)[C@@H](NC(=O)[C@H](C)NC(=O)[C@@H](N)CCCCN)[C@@H](C)CC)[C@@H](C)CC)[C@@H](C)CC)[C@@H](C)CC)C(N)=O [KAIAKSILKWIKSIAKAI],5.6 µM,1.4 µM,,,MIC (Pseudomonas aeruginosa): 11.2 µM

# — DBAASP
